Entries after “also recorded” stand apart in the source; their conditions may differ.
Key:
[1] = system: autophagic flux in 7940B cells; assay: GFP-LC3-RFP-LC3ΔG autophagic flux probe assay in 7940B cells; format: cell-based, mouse; conditions: for basal autophagic flux / autophagic flux induced by torin-1: apilimod 100 nM, ESK981 1000 nM, chloroquine 50 μM; for autophagic flux induced by torin-1: torin-1 100 nM
Excerpt: (§1) Generation of the autophagic flux probe in 7940B, Panc 04.03, and iKRAS was done according to the original author's instructions. Kaizuka, T. et al., Mol Cell 64, 835-849, doi:10.1016/j.molcel.2016.09.037 (2016). Briefly, cells were infected with pMRX-IP-GFP-LC3-RFP-LC3DG, which was a gift from Noboru Mizushima (Addgene plasmid #84572; http://n2t.net/addgene:84572; RRID:Addgene_84572). Following puromycin selection, single-cell clones were expanded and genotyped to ensure the absence of homologous recombination between two LC3 fragments during retrovirus integration.
(§2) 15,000 cells were seeded in 96-well plates. After overnight incubation, cells were treated with the indicated compounds for 24 hours. […] Fluorescent signals were detected using the Infinite M1000 Pro plate reader (Tecan).

[2] = system: autophagic flux in Panc 04.03 cells; assay: GFP-LC3-RFP-LC3ΔG autophagic flux probe assay in Panc 04.03 cells; format: cell-based, human; conditions: for autophagic flux induced by torin-1: 4-hour pre-treatment, then torin-1 100 nM 24 hours; for autophagic flux induced by torin-1 / basal autophagic flux: apilimod 300 nM, ESK981 1000 nM, chloroquine
Excerpt: as §1, §2

FASN and ACACA = assay: qPCR of FASN and ACACA in PDAC cell lines treated with KRAS-MAPK inhibitors; format: cell-based; conditions: eight hours; PDAC cell lines with the relevant KRAS mutation
Procedure: Total RNA was isolated from cells using the miRNeasy kit (Qiagen), and cDNA was synthesized from 1000 ng of total RNA using Maxima First Strand cDNA Synthesis Kit for RT-qPCR (Thermo Fisher Scientific). Quantitative real-time PCR was performed in triplicates using standard SYBR green reagents and protocols on a QuantStudio 5 Real-Time PCR system (Applied Biosystems). The target mRNA expression was quantified using the ΔΔCt method and normalized to ACTB (human) or Actb (murine) expression. All primers were designed using Primer 3 (http://frodo.wi.mit.edu/primer3/) and synthesized by Integrated DNA Technologies (Coralville).

[3] = system: FASN and ACACA transcripts in AsPC1 cells; conditions: MRTX1133 100 nM, 24 hours; cited from earlier work
[4] = system: FASN and ACACA transcripts in AsPC1 cell-derived xenograft; conditions: 30 mg/kg MRTX1133 6 hours prior to tumor collection; cited from earlier work
cell surface MHC-I = assay: Flow cytometry of cell surface MHC-I in mouse cancer lines; format: cell-based; conditions: pancreatic (KPC1361); extended to 4T1, B16-F10, LLC
mouse PIKfyve protein = biological target: T1, mouse PIKfyve protein (Mus musculus, UniProt Q9Z1T6); assay: Cellular Thermal Shift Assay (CETSA) in 7940B cells; format: binding; conditions: 1000 nM, 2 hours
T1 construct: endogenous in cells; host or cells: 7940B (murine KPC pancreatic cancer cell line)
Procedure: CETSA was performed according to previously described protocols^71. Briefly, 7940B cells were seeded overnight and were subsequently treated with DMSO, ESK981 (1000 nM), or apilimod (1000 nM) for 2 hours. Cells were then harvested and made into single-cell suspensions of 1×10^6 cells each in […] of PBS containing protease inhibitors. The suspensions were then subjected to heating and cooling cycles (two cycles of 3-minute heating followed by 3-minute cooling at room temperature) using a thermal cycler. Cells were then lysed with three cycles of freeze-thawing in liquid nitrogen. Lysates were then analyzed using immunoblot analysis as previously described.

7940B cells [5] = assay: RNA-seq in 7940B cells; format: cell-based, mouse; conditions: eight-hour treatment
Procedure: RNA-seq libraries were prepared using 800 ng of total RNA. Ribosomal RNA were removed by enzymatic digestion of the specific probe-bound duplex rRNA, and then fragmented to around 200-300 bp with heat in fragmentation buffer (KAPA RNA Hyper+RiboErase HMR, Roche). Double-stranded cDNA was then synthesized by reverse transcription and underwent end-repair and ligation using New England Biolabs (NEB) adapters. Final library preparation was then prepared by amplification with 2×KAPA HiFI HotStart mix and NEB dual barcode. Library quality was measured on an Agilent 2100 Bioanalyzer (DNA 1000 chip) for concentration and product size. Paired-end libraries were sequenced with the Illumina NovaSeq, (2×151 nucleotide read length) with sequence coverage to 30-40 million paired reads. Reads were demultiplexed using Illumina's bcl2fastq conversion software v2.20. Transcripts were quantified by the alignment-free approach kallisto using index generated from mouse reference genome (mm10) and then summed to obtain gene level counts. Differential analysis was performed using limma-voom after TMM-normalization of gene level counts with calcNormFactors of edgeR. Genes with mean Transcripts Per Million (TPM) less than 1 in both control and treatment groups were considered as lowly expressed genes and excluded for differential analysis. […]

7940B cells [6] = assay: Targeted metabolomics in 7940B cells; format: cell-based, mouse; conditions: apilimod 100 nM, ESK981 1000 nM
Procedure: Polar metabolites from samples treated in biological triplicates were extracted using 80% v/v methanol/water and normalized using protein quantification from an additional sample from each condition. Equal estimated amounts of metabolites were dried using a SpeedVac vacuum concentrator, reconstituted in 50% v/v methanol in water, and analyzed by LC-MS as previously described. Data were analyzed as previously described with the Agilent Masshunter Workstation Quantitative Analysis for QQQ version 10.1 Build 10.1.733.0. No post-detection normalization was performed to avoid assuming linearity of signal. Heatmaps were generated using the Morpheus Matrix Visualization and analysis tool (https://software.broadinstitute.org/morpheus).

7940B cells [7] = assay: Targeted lipidomics in 7940B cells; format: cell-based, mouse; conditions: 24 hours; apilimod 100 nM, ESK981 1000 nM
Procedure: Sample preparation: Samples for lipidomics analyses were prepared according to the automatic dual-metabolite/lipid sample preparation workflow described in the Agilent application note 5994-5065EN. Briefly, 1 million cells were washed in PBS and lysed with 1:1 trifluoroethanol/water at room temperature. Lysates were transferred to microcentrifuged tubes, incubated for 10 minutes, and then centrifuged at 250×g for 30 seconds. Samples were then dehydrated under reduced pressure with no heat. […]
LC-MS/MS analysis: samples were analyzed on an Agilent 1290 Infinity II Bio LC ultra-high performed liquid chromatography (UPLC) system consisting of a high-pressure binary pump, multicolumn thermostat, and a temperature controlled multi-sampler. Samples were analyzed in randomized order on an Agilent 649C triple quadrupole mass spectrometer equipped with an Agilent Jet Stream Dual ESI ion source. Specifically, samples were analyzed with the reverse phase LC-MS/MS method reported in the Agilent application note 5994-3747EN. After acquisition, datasets were processed with MassHunter Quantitative analysis software and subsequently imported into Mass Profiler Professional (MPP) for chemometric analysis. […]

[8] = Ikonomov et al. 2019; cited from earlier work
[9] = system: autophagic flux in iKras cells; assay: Autophagic flux probe assay in iKRAS 9805 cells; format: cell-based; conditions: doxycycline withdrawal; apilimod 100 nM, ESK981 1000 nM, chloroquine 10 μM, 24 hours
Excerpt: as §1, §2

[10] = system: 7 human and mouse PDAC cell lines; conditions: 7 days, CellTiter-Glo
Procedure: Cells were plated into 96-well plates and incubated overnight at 37° C. in 5% CO2. The following day, a serial dilution of the indicated compounds was prepared in culture medium and added to the plate. The cells were then further incubated for 5 days (experiments involving MRTX1133 or trametinib) or 7 days (all other experiments). Subsequently, the CellTiter-Glo assay (Promega), was then performed according to the manufacturer's instructions. The luminescence signal was acquired using an Infinite M1000 Pro plate reader (Tecan), and the data were analyzed using GraphPad Prism 10 (GraphPad Software Inc.).

7940B cells [11] = assay: Real-time oxygen consumption rate (Resipher) in 7940B cells; format: cell-based, mouse; conditions: apilimod 100 nM, ESK981 1000 nM, bafilomycin 100 nM, chloroquine 100 μM
Procedure: Real-time monitoring of basal oxygen consumption rate was performed using a Resipher (Lucid Scientific). […] Immediately following treatment with an additional 50 μl of medium (for a total of 100 μl), OCR monitoring was started by placing the Resipher device on the cells, which was incubated at 37° C. and 5% CO2 for 24 hours.

[12] = 24-hour treatment, labeled doses
[13] = MRTX1133 300 nM or trametinib 25 nM, 24 hours

T1 sequence (Q9Z1T6 whole entry): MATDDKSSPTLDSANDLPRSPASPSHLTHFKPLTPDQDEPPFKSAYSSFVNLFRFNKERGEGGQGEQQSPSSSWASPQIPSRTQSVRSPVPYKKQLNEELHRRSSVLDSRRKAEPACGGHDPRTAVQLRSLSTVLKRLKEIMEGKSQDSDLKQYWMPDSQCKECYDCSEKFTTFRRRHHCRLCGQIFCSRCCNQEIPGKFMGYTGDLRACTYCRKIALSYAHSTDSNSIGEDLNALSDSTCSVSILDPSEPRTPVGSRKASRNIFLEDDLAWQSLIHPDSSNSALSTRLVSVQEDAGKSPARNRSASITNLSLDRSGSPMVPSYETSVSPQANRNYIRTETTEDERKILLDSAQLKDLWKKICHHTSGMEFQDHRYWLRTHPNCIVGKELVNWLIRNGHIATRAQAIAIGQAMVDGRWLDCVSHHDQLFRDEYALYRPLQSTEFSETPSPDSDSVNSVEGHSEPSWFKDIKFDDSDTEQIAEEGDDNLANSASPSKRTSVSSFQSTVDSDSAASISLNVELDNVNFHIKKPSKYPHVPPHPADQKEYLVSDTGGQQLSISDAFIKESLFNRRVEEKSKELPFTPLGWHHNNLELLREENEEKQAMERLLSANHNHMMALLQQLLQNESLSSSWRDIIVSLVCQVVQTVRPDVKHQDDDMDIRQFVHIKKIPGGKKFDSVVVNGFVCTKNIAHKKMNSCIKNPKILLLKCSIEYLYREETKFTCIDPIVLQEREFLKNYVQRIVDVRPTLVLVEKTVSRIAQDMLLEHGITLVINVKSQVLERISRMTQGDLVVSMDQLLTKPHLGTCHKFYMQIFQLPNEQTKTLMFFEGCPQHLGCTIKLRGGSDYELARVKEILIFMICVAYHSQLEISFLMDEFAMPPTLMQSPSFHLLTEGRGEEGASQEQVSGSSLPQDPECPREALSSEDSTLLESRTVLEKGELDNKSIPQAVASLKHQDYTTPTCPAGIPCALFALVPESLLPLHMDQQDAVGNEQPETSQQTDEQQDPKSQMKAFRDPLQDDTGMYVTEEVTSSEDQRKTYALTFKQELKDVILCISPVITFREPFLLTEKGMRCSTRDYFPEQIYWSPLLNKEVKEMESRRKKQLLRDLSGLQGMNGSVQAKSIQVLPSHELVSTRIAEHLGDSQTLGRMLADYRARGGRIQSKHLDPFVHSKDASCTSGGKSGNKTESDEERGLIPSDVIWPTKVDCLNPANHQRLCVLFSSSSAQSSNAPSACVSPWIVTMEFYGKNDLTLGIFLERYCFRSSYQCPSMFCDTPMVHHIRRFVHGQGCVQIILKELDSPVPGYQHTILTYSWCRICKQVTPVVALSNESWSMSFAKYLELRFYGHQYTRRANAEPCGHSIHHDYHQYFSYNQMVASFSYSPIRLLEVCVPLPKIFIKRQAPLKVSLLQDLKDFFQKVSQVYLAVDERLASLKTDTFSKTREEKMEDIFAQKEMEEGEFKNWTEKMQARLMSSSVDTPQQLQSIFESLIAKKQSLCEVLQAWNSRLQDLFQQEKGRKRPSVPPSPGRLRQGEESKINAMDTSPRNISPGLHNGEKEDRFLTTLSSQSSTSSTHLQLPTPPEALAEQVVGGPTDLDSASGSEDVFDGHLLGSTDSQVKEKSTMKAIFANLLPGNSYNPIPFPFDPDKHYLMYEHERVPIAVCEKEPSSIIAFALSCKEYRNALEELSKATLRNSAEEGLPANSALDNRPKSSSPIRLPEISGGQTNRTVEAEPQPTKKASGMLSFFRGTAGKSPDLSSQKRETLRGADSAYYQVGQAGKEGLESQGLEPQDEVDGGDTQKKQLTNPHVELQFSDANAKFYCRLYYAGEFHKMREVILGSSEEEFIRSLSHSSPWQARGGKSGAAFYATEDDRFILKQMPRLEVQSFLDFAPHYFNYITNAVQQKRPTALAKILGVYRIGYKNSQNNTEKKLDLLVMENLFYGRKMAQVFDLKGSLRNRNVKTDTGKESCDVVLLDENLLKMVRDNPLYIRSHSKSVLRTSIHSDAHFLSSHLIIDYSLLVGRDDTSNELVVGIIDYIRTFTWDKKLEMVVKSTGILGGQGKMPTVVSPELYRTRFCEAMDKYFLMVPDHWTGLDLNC

For `C#Cc1c(F)ccc2cc(O)cc(-c3ncc4c(N5CC6CCC(C5)N6)nc(OC[C@@]56CCCN5C[C@H](F)C6)nc4c3F)c12` [MRTX1133], the “autophagy upon acute KRAS G12D inhibition” value [1, 12] was “upregulate autophagy”, the “autophagic flux upon KRAS-MAPK inhibition” value [1, 13] was “induced autophagic flux” and the “autophagy upon acute KRAS G12D inhibition” value [2, 12] was “upregulate autophagy”. The “autophagic flux upon KRAS-MAPK inhibition” value [2, 13] was “induced autophagic flux”, the “transcription of FASN and ACACA” value (FASN and ACACA) was “decreased transcription of FASN and ACACA” and the “FASN and ACACA transcripts in vitro” value [3] was “decreases FASN and ACACA transcripts”. The “FASN and ACACA transcripts in vivo” value [4] was “decreases FASN and ACACA transcripts”.

In the case of `Cc1cccc(/C=N/Nc2cc(N3CCOCC3)nc(OCCc3ccccn3)n2)c1` [apilimod, N-[(E)-(3-methylphenyl)methylideneamino]-6-morpholin-4-yl-2-(2-pyridin-2-ylethoxy)pyrimidin-4-amine], the “cell surface expression of MHC-I” value (cell surface MHC-I) is reported as “increased cell surface expression of MHC-I”, the “binding / stabilization of PIKfyve (CETSA)” value (mouse PIKfyve protein) is reported as “bind to mouse PIKfyve protein; also recorded: stabilization of PIKfyve” and the basal autophagic flux ([1]; 24 hours) is reported as “decreased”. The “autophagic flux induced by torin-1” value [1] was “decreased”, the “autophagic flux induced by torin-1” value [2] was “decreased” and the basal autophagic flux [2] was “decreased”. The gene expression changes (7940B cells [5]) was “concordant gene expression changes”, the most upregulated pathways (7940B cells [5]) was “cholesterol homeostasis, MTORC1 signaling, and fatty acid metabolism” and the glycolytic metabolites (7940B cells [6]; eight hours) was “dramatic depletion of glycolytic metabolites”. For the same compound, the citrate level (7940B cells [6]; three hours) was “decrease in citrate”, the cellular lipid landscape (7940B cells [7]) was “induced significant changes in the cellular lipid landscape” and the in vivo pharmacokinetics [8] was “poor in vivo pharmacokinetics”.

For `CCN(CC)CCCC(C)Nc1ccnc2cc(Cl)ccc12` (centres unmarked) [chloroquine], the basal autophagic flux ([1]; 24 hours) was “decreased”, the “autophagic flux induced by torin-1” value [1] was “decreased” and the “autophagic flux induced by torin-1” value [2] was “decreased”. The basal autophagic flux [2] was “decreased”, the “increase in autophagic flux upon Kras OFF” value [9] was “attenuated” and the “half-maximal inhibitory concentrations (IC50), cell viability” value [10] was “much higher”. For the same compound, the “OCR through 24 hours of treatment” value (7940B cells [11]) was “significantly decreased OCR”.

Reference: patent publication US20260053801A1, “METHOD FOR TREATING AUTOPHAGY DEPENDENT CANCER WITH A PIKFYVE INHIBITOR” (The Regents of the University of Michigan, priority 2023, published 2026)
